In patent publication US10093675B2, “6,8-disubstituted-9-(heterocyclyl)purines, compositions containing these derivatives and their use in cosmetic and medicinal applications” (USTAV EXPERIMENTALNI BOTANIKY AV CR, V.V.I., priority 2014, dated 2018):
Where two headings read alike, the source gives them in different places.

Assays:
[1] = tested on: breast carcinoma cell line MCF-7; experiment: In vitro cytotoxic activity (Calcein AM), MCF-7; assay type: cell-based, human; conditions: read-out: Cell line tested/IC50 (μmol/L) MCF7
How it was run: (§1)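 In this metabolic viability test, hydrolysis of Calcein AM (1 μg/ml final, 1 h) by live cells follows 72 h of treatment at 37° C in 5% CO2. The highest concentration is normally 100 μM, with triplicate points. GI50 marks the 50% drop in conversion.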

[2] = tested on: osteosarcoma cell line HOS; experiment: In vitro cytotoxic activity (Calcein AM), HOS; assay type: cell-based, human; conditions: 72 hours, read-out: Cell line tested/IC50 (μmol/L) HOS
How it was run: as §1

[3] = tested on: T-lymphoblastic leukemia cell line CEM; experiment: In vitro cytotoxic activity (Calcein AM), CEM; assay type: cell-based, human; conditions: 72 hours, read-out: Cell line tested/IC50 (μmol/L) CEM
How it was run: as §1

[4] = tested on: cytokinin-dependent tobacco callus Nicotiana tabacum L. cv. Wisconsin 38; experiment: Plant cell division: growth of cytokinin-dependent tobacco callus; assay type: cell-based; conditions: for Activity (%); (s.d.): relative activity at concentration with highest activity, 10^−6 M kinetin set at 100%; for Concentration with highest activity (mol/l): tobacco callus fresh weight increase after four weeks, tested 10^−8 M to 10^−4 M
[5] = tested on: Salmonella typhimurium histidien auxotrophs TA98 and TA100; experiment: Ames test; assay type: cell-based; conditions: 2.5 to 5000 μg/plate; presence and absence of Aroclor-induced rat liver S9
How it was run: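 Strains TA98 and TA100 exposed to compounds in DMSO at 2.5, 5.0, 15, 50, 500, 1500 and 5000 μg/plate following standard Ames/Maron protocols.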

[6] = tested on: normal diploid fibroblasts BJ; experiment: In vitro cytotoxic activity (Calcein AM), BJ; assay type: cell-based, human; conditions: 72 hours, read-out: Cell line tested/IC50 (μmol/L) BJ
How it was run: as §1

[7] = tested on: Human diploid fibroblast BJ; experiment: In vitro cytotoxic activity (MTT); assay type: cell-based; conditions: 72 hours incubation; concentration causing 20% decrease in mitochondrial dehydrogenase activity
[8] = tested on: erytroid leukemia cell line K-562; experiment: In vitro cytotoxic activity (Calcein AM), K-562; assay type: cell-based, human; conditions: read-out: Cell line tested/IC50 (μmol/L) K-562
How it was run: as §1

melanoma cell line G-361 = experiment: In vitro cytotoxic activity (Calcein AM), G-361; assay type: cell-based, human; conditions: read-out: Cell line tested/IC50 (μmol/L) G-361
How it was run: as §1

Row | Compound | IC50 ([1]; Homo sapiens, MCF7, 72 hours) | IC50 ([2]; Homo sapiens) | IC50 ([3]; Homo sapiens) | Activity (%); (s.d.) [4] | mutagenic response [5] | IC50 ([6]; Homo sapiens, Fibroblast) | GI20 [7] | IC50 ([8]; Homo sapiens, K562, 72 hours) | IC50 (melanoma cell line G-361; Homo sapiens, G-361, 72 hours) | IC50 ([1]; 72 hours) | IC50 [2] | IC50 [3] | Concentration with highest activity (mol/l) [4] | IC50 [6] | IC50 ([8]; 72 hours) | IC50 (melanoma cell line G-361; 72 hours)
1 | C/C(=C\CNc1ncnc2c1nc(Br)n2C1CCCCO1)CO (stereo not shown) [Compound 24, (E)-8-Bromo-6-(4-hydroxy-3-methylbut-2-en-1-ylamino)-9-(tetrahydropyran-2-yl)-9H-purine] | > 50 µmol/L | > 50 µmol/L | > 50 µmol/L | 128 (±8) % | no positive mutagenic responses | > 50 µmol/L | >100 µM | > 50 µmol/L | > 50 µmol/L |  |  |  |  |  |  | 
2 | Fc1cccc(CNc2ncnc3c2nc(Br)n3C2CCCCO2)c1 (stereo not shown) [Compound 26] |  |  |  | 117 (±4) % | no positive mutagenic responses |  | >100 µM |  |  | > 50 µmol/L | > 50 µmol/L | > 50 µmol/L | 10^−6-10^−5 mol/l | > 50 µmol/L | > 50 µmol/L | > 50 µmol/L
3 | Fc1ccc(CNc2ncnc3c2nc(Br)n3C2CCCCO2)cc1F (stereo not shown) [Compound 27] |  |  |  | 115 (±4) % | no positive mutagenic responses |  | >100 µM |  |  | > 50 µmol/L | > 50 µmol/L | > 50 µmol/L | 10^−6-10^−5 mol/l | > 50 µmol/L | > 50 µmol/L | > 50 µmol/L
4 | C/C(=C\CNc1ncnc2c1nc(Cl)n2C1CCCO1)CO (stereo not shown) [Compound 64] |  |  |  | 130 (±10) % | no positive mutagenic responses |  | >100 µM |  |  | > 50 µmol/L | > 50 µmol/L | > 50 µmol/L | 10^−6-10^−4 mol/l | > 50 µmol/L | > 50 µmol/L | > 50 µmol/L
5 | COc1cccc(CNc2ncnc3c2nc(Cl)n3C2CCCO2)c1 (stereo not shown) [Compound 69] |  |  |  | 111 (±5) % | no positive mutagenic responses |  | >100 µM |  |  | > 50 µmol/L | > 50 µmol/L | > 50 µmol/L | 10^−6-10^−4 mol/l | > 50 µmol/L | > 50 µmol/L | > 50 µmol/L
6 | COc1nc2c(NCc3ccco3)ncnc2n1C1CCCCO1 (stereo not shown) [Compound 124, 6-Furfurylamino-8-methoxy-9-(tetrahydropyran-2-yl)-9H-purine] | > 50 µmol/L | > 50 µmol/L | > 50 µmol/L | 105 (±2) % | no positive mutagenic responses | > 50 µmol/L | >100 µM | > 50 µmol/L | > 50 µmol/L |  |  |  |  |  |  | 
7 | CSc1nc2c(NCc3ccco3)ncnc2n1C1CCCCO1 (stereo not shown) [Compound 145, 6-Furfurylamino-8-methylsulfanyl-9-(tetrahydropyran-2-yl)-9H-purine] | > 50 µmol/L | > 50 µmol/L | > 50 µmol/L | 103 (±5) % | no positive mutagenic responses | > 50 µmol/L | >100 µM | > 50 µmol/L | > 50 µmol/L |  |  |  |  |  |  | 
